These results are taken from ChEMBL document CHEMBL1201862, “PubChem BioAssay data set” (2004).

Broadly, the AC50 is the midpoint of the concentration-response curve, whichever way the signal moves. The term EC50 denotes the concentration at which the effect is half-maximal. Usually IC50 stands for the concentration at which inhibition is half-maximal.

Test [1] is described as follows: Luminescence Cell-Based Dose Retest to Confirm Inhibitors of Cancer Stem Cells. [Related pubchem assays (depositor defined):AID2717, AID2721]. It counts as functional. The settings on record: Homo sapiens.
The target in another test is T1, Streptokinase A (Streptococcus pyogenes serotype M1, UniProt P10520).
T1 sequence (P10520 whole entry): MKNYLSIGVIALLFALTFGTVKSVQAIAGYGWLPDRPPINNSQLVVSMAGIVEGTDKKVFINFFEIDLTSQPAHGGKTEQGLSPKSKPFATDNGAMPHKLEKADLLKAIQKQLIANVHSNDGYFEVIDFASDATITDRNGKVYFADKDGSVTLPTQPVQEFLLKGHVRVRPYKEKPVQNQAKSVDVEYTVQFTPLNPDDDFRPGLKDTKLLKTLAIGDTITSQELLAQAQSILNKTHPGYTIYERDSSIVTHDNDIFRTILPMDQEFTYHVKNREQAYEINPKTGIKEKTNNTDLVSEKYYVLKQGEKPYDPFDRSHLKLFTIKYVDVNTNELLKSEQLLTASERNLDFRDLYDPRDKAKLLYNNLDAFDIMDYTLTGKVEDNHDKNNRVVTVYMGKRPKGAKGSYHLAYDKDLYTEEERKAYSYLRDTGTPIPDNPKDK
Description: S. pyogenes streptokinase expression inhibitors, potency, dose response, plasminogen activation absorbance, OD405 (AID 1914).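 Further: secreted streptokinase activity via plasminogen activation per viability signal from cell pellet.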 The class given is functional, Streptococcus pyogenes M1 GAS.

The next test concerns Streptococcus. Briefly: Group A Streptococcus viability loss, dose response, counter-screen for streptokinase expression inhibitor project, luminescence, BacTiterGlo (AID 1915).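 Further: potency for reduction of bacterial viability or growth.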 The class given is functional, organism-based. Background: Counterscreens check selectivity or assay interference.
In test [2] the test system is Streptococcus sp. 'group A'. Description: growth inhibition of control SK(-) GAS strain, dose response, counter-screen for streptokinase expression inhibitor project, luminescence, kanamycin, BacTiterGlo, confirmation (AID 1900). It counts as functional, organism-based.
In a further test the target is Cytochrome P450 3A4 (Homo sapiens, UniProt P08684).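 Further: CYP3A4 tested as one member of a cytochrome P450 panel screen.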
Cytochrome P450 3A4, sequence (P08684 whole entry): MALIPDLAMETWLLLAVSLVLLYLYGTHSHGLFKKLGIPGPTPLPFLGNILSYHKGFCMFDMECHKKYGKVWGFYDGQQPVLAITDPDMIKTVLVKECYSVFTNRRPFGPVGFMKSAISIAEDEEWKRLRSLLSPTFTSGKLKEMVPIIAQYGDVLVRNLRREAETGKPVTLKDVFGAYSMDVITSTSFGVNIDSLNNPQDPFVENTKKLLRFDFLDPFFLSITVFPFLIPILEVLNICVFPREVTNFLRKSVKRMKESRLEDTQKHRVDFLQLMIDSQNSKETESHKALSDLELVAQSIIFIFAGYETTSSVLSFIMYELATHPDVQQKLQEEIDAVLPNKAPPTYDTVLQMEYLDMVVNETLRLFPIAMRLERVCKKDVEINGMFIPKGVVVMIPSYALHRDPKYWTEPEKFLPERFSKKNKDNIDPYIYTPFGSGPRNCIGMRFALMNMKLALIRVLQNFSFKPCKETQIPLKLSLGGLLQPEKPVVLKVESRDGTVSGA
A further test concerns the target Cytochrome P450 2C19 (Homo sapiens, UniProt P33261). Description: Cytochrome panel assay with activity outcomes. Panel member name: p450-cyp2c19 Compounds with AC50 equal or less than 10 uM are considered active. It counts as functional. The settings on record: read-out: AC50.
The next test has as its target Cytochrome P450 2C9 (Homo sapiens, UniProt P11712).
A further test has as its target T2, Cytochrome P450 1A2 (Homo sapiens, UniProt P05177).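 Further: PubChem cytochrome P450 panel assay, CYP1A2 panel member.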
T2 sequence (P05177 whole entry): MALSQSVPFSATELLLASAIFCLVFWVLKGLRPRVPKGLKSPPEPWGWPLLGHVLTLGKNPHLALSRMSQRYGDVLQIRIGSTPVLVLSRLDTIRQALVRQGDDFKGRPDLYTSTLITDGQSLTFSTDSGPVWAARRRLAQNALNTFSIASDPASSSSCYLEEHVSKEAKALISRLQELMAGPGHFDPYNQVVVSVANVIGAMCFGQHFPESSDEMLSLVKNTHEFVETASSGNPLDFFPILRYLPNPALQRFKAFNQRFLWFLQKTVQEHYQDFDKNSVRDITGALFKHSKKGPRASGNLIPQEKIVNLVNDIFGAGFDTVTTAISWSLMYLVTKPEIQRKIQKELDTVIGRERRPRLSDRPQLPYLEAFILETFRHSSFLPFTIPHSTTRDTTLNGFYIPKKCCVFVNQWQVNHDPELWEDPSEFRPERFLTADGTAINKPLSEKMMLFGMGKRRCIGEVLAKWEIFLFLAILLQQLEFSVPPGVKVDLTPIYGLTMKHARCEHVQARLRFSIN

The nature of test [3]: cytotoxicity toward NIH3T3 fibroblasts, dose response, counter-screen, cell-based, ATP luminescence, mouse fibroblasts (AID 2010).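 Further: cells exposed to compound for about 90 hours before reading.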 It counts as functional.
Test [4] in a line: inhibitors of intracellular T. cruzi replication, confirmation, NIH3T3 host cells, beta-gal luminescence (AID 2044).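 Further: intracellular parasites grown in NIH/3T3 mouse fibroblasts as host cells; luminescent beta-galactosidase reporter signal from transgenic T. cruzi replicating inside host cells; inhibitors lower the luminescence signal.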 It counts as functional, cell-based.
The target of test [5] is T3, Rac GTPase-activating protein 1 (Homo sapiens, UniProt Q9H0H5).
T3 sequence (Q9H0H5 whole entry): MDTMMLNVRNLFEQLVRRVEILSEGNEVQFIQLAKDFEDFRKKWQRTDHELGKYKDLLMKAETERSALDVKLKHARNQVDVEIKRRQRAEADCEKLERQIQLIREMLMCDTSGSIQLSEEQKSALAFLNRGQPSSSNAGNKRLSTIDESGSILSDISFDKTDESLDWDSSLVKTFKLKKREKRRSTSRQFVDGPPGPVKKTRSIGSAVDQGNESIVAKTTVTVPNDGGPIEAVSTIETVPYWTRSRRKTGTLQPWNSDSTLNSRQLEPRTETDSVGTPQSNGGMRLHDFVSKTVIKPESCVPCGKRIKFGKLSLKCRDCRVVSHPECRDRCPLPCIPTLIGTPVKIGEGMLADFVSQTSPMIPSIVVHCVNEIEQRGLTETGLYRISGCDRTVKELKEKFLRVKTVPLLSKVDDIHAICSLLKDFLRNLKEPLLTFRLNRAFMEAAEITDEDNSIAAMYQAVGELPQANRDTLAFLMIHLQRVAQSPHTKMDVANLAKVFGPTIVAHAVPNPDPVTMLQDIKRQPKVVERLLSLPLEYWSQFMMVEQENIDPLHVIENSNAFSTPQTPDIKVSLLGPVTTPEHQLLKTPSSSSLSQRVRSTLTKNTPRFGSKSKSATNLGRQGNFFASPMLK
Description: MgcRacGAP GTPase-activating activity inhibitors, confirmation, biochemical, ADP Hunter fluorescence, primary and confirmatory (AID 624330). The class given is functional.

The test system of another test is H4. Briefly: Luminescence Cell-Based Dose Response HTS to Identify Activators of 5'UTR Stem-Loop Driven Prion Protein mRNA Translation in H4 Neuroglioblastoma Cells. [Related pubchem assays: 1829 (Project Summary), 1814 (Primary HTS)]. It counts as functional. The conditions noted are these: Homo sapiens.
Another test concerns the target Cytochrome P450 2D6 (Homo sapiens, UniProt P10635).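 Further: CYP2D6 member of a cytochrome P450 panel assay.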

Molecules are shown by their SMILES. Activity calls are given as the source filed them. A value given as a limit tells only on which side of the number the result lay.

Cytochrome P450 2C9, sequence (P11712 whole entry): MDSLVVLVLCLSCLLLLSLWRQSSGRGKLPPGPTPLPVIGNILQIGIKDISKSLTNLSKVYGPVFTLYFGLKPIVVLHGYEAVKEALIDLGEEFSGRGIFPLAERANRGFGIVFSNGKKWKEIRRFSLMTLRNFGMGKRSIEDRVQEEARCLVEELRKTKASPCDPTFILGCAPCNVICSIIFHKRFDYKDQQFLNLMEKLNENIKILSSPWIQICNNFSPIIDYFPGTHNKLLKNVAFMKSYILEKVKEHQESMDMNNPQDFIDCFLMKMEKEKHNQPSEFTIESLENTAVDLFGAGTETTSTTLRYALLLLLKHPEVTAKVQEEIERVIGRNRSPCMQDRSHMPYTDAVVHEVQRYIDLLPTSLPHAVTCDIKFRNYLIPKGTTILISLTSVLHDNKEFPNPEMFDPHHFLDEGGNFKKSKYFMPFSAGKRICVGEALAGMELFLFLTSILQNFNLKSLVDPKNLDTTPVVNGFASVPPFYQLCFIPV
Cytochrome P450 2C19, sequence (P33261 whole entry): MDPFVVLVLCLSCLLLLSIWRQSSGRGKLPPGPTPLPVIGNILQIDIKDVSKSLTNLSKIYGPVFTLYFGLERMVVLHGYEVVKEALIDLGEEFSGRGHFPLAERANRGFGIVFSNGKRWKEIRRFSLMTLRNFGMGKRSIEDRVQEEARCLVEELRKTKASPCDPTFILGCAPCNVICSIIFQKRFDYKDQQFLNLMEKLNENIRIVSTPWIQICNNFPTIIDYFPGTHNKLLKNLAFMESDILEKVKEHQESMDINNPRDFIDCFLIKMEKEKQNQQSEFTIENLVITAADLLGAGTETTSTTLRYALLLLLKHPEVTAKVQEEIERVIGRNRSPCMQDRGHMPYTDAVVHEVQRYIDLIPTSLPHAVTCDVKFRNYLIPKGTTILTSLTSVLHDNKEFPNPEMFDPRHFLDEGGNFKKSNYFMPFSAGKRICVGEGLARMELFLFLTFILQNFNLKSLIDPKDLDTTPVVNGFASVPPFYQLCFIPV
Cytochrome P450 2D6, sequence (P10635 whole entry): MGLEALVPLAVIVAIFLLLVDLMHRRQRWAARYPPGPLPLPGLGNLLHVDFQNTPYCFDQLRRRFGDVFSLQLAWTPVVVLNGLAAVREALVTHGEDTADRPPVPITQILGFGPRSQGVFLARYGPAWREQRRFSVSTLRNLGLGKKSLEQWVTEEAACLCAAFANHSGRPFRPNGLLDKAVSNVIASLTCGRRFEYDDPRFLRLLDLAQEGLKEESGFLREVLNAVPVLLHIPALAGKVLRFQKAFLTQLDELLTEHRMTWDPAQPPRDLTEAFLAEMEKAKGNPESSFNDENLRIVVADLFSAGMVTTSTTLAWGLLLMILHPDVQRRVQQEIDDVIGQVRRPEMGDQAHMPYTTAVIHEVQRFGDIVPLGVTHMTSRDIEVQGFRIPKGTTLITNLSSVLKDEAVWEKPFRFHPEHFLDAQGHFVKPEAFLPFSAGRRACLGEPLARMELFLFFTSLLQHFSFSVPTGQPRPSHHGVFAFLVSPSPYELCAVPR

As to `COc1ccc(-c2sc3ccccc3c2C#CC2(O)CCCCC2)cc1`, in test [1], the AC50 is 3.73 µM (active). Also, the EC50 at Streptokinase A was 6.81 µM (active); with Streptococcus it was 8.22 µM (active); in [2] it was 3.52 µM (active).
As for `O=S(=O)(Nc1cc(O)nc(SCc2ccc(Cl)cc2)n1)c1ccccc1`, the AC50 in test [1] was 4.07 µM (active).
The same measure, in the same setting: in the case of `CN(CC(=O)Nc1ccccc1Cl)C(=O)c1cccc(-n2cccc2)c1` it was > 195 µM (inactive).
Consider `Cc1ccc(NC(=S)NC(=O)c2ccc(F)cc2)cc1S(=O)(=O)Nc1cccc(Cl)c1`, for which the EC50 at Streptokinase A is 11.5 µM (active); in the test with Streptococcus, 54.2 µM (active); in [2], 1.48 µM (active).
Regarding `CN1CCN(NC(=O)Nc2cc(Cl)cc(Cl)c2)CC1`, the EC50 at Streptokinase A is 21.7 µM (active); in the test on Streptococcus, > 150 µM (not active); in test [2], 6.77 µM (active).
For the molecule `O=c1[nH]c2ccccc2/c(=N\S(=O)(=O)c2ccc(Cl)cc2)n1-c1ccccc1`, the AC50 on Cytochrome P450 3A4 is 2.82 µM (inconclusive); on Cytochrome P450 2C19 it was 25.1 µM (inconclusive); on Cytochrome P450 2C9, 0.891 µM (inconclusive); at Cytochrome P450 1A2 it was 8.91 µM (inconclusive).
`O=C(c1cc(-c2cccs2)nc2ccccc12)N1CCN(c2ccccc2O)CC1`: the EC50 on Streptokinase A was 144 µM (active); in the test on Streptococcus, 54.8 µM (active); in test [2] it was 21.8 µM (active).
As for `Cc1ccc2c(c1)N(CCC(=O)NCCN1CCOCC1)C(=O)CO2`, the AC50 on Cytochrome P450 3A4 is 25.1 µM (inconclusive); at Cytochrome P450 2C19, 39.8 µM (inconclusive); at Cytochrome P450 2C9, 39.8 µM (inconclusive).
Regarding `CCc1ccc(/C=C/c2c([N+](=O)[O-])c(=O)n(C)c(=O)n2C)cc1`, the EC50 on Streptokinase A is > 150 µM (not active); in the test with Streptococcus, 18 µM (active); in test [2] it was 4.55 µM (active).
As for `CCN(CC)c1ccc(S(=O)(=O)Nc2cc(Cl)ccc2Cl)cc1NC(=S)NC(=O)C1CCCC1`, in test [1], the AC50 is 1.65 µM (active).
In the case of `CCOC(=O)c1c(-c2ccccc2)csc1NC(=O)c1nn(CC)cc1Br`, the AC50 in test [1] is 0.506 µM (active). In addition, the EC50 was > 60 µM (not active) in [3] and 2.06 µM (active) in [4].
On to `O=c1[nH]c(=S)[nH]c(-c2ccccc2)c1Cc1c(O)ccc2ccccc12` [CAMBINOL], for which the AC50 on Cytochrome P450 3A4 is 0.631 µM (inconclusive); on Cytochrome P450 2C19, 0.0794 µM (inconclusive); on Cytochrome P450 2C9, 7.94 µM (inconclusive); on Cytochrome P450 1A2, 1 µM (inconclusive).
`COc1ccc(CNc2ncc(-c3ccc(Br)cc3)n2C)cc1OC`: the IC50 in test [5] was 55.6 µM (active).
For the molecule `CCn1c2ccccc2c2cc(NS(=O)(=O)c3ccc(C)cc3)ccc21`, the AC50 in test [1] was 2.87 µM (active).
In the case of `CC(C)N1CCN(C(=O)c2cccc(Cl)c2)CC1`, in test [5], the IC50 was 295 µM (active).
Same read-out and setting: the result for `CCN1CCN(CC(=O)Nc2nc3ccccc3s2)CC1` reads 55.7 µM (active).
On to `Cc1nc(Nc2nc(-c3ccccc3)cc(=O)[nH]2)nc2ccccc12`, for which the EC50 on Streptokinase A is > 150 µM (not active).
Consider `COCc1cc(C)nc(OCC(=O)N/N=C/c2ccc(O)cc2)c1C#N`, for which the IC50 in test [5] is 83.2 µM (active).
`Cc1cc(NC(=O)c2cnccn2)no1`: the EC50 (on Streptokinase A; with Streptococcus; in test [2]) was > 150 µM (not active) each time.
Regarding `COc1ccc(C(=O)CSc2[nH]c(=O)cc(C(F)(F)F)c2C#N)cc1`, the EC50 at Streptokinase A is 8.62 µM (active).
With `Cc1sc2ncnc(N3CCC(C(=O)Nc4ccc(Cl)cc4Cl)CC3)c2c1C`, the values for the EC50 (on Streptokinase A; with Streptococcus; in [2]) were 91.7 µM (active), 66 µM (active) and 23.6 µM (active), respectively.
As to `Nc1ccc(OCCc2ccccc2)cc1`, the IC50 in [5] was 31.2 µM (active).
For `O=C(CN1CCN(S(=O)(=O)c2ccccc2F)CC1)N1CCc2ccccc2C1`, the IC50 in [5] was 47.1 µM (active).
Regarding `NC(=NNC(=O)c1sccc1OCc1ccc(Cl)cc1Cl)c1ccccn1`, on Streptokinase A, the EC50 was 35.4 µM (active).
Take `C/C(N=Nc1ccccc1O)=N\Nc1nc2ccccc2s1`: in [1], the AC50 was 3.71 µM (active).
Turning to `Cc1ccc(-c2nc3nc(O)cc(NC(=O)c4cccs4)n3n2)cc1`, the EC50 was > 150 µM (not active) at Streptokinase A, > 150 µM (not active) in the test with Streptococcus and 15.4 µM (active) in [2].
For the molecule `CCC(Nc1cc(OC)ccc1OC)=C1C(=O)NC(=O)NC1=O`, the AC50 at Cytochrome P450 3A4 is 39.8 µM (inconclusive); on Cytochrome P450 2C19, 31.6 µM (inconclusive).
For `CCC(=O)NNc1ccc(Br)cc1`, the AC50 in test [1] is 1.82 µM (active).
As for `O=C(CSc1nc(-c2ccc(Cl)cc2)nc(=O)[nH]1)Nc1cccc(Cl)c1`, the EC50 on Streptokinase A is 4.65 µM (active).
As for `C/C(=N\NC(=S)Nc1ccc(F)cc1)c1ccc2c(c1)OCCO2`, in test [1], the AC50 is 1.02 µM (active).
Turning to `CCn1c(C)nc2cc(C(=O)NNC(=S)NC(=O)c3ccc(OC)cc3)ccc21`, the EC50 on Streptokinase A was > 150 µM (not active); with Streptococcus, 95.3 µM (active); in test [2], 9.55 µM (active).
Turning to `O=C1CC(=O)N(CCc2ccc(F)cc2)C(=O)N1`, the AC50 on Cytochrome P450 3A4 is 31.6 µM (inconclusive); at Cytochrome P450 2C19, 31.6 µM (inconclusive); on Cytochrome P450 2C9, 25.1 µM (inconclusive).
Regarding `COc1ccccc1C(=O)COC(=O)c1ccc(N(C)C)cc1`, in the test on H4, the EC50 is 1.79 µM (active).
Take `Cc1ccc(-n2nnnc2SCC(=O)c2cc(C)n(-c3cc(C)on3)c2C)c(C)c1`: the figures for the EC50 (at Streptokinase A; with Streptococcus; in [2]) were 89.2 µM (active), > 150 µM (not active) and 25.6 µM (active), respectively.
With `N#Cc1cccc(NC(=O)N2CC3(CCN(C(=O)c4cc(C(F)(F)F)cc(C(F)(F)F)c4)CC3)C2)c1`, the AC50 on Cytochrome P450 3A4 was 31.6 µM (inconclusive); at Cytochrome P450 2D6, 20 µM (inconclusive).
In the case of `Oc1ccc(Br)cc1CNn1cnnc1`, the AC50 on Cytochrome P450 3A4 was 35.5 µM (inconclusive); at Cytochrome P450 2C9, 17.8 µM (inconclusive); at Cytochrome P450 1A2 it was 14.1 µM (inconclusive).
Consider `CC(C)c1ccc(C(=O)NC(=S)Nc2ccc3[nH]c(=O)[nH]c3c2)cc1`, for which the EC50 on Streptokinase A is recorded as > 150 µM (not active).
For `CN(C)c1ncc2ncc(=O)n(Cc3cccs3)c2n1`, the AC50 was 15.8 µM (inconclusive) on Cytochrome P450 3A4, 39.8 µM (inconclusive) at Cytochrome P450 2C9 and 12.6 µM (inconclusive) at Cytochrome P450 2D6.
